SMILES strings stand for the structures.

From US9890147B2 (BAYER PHARMA AKTIENGESELLSCHAFT, priority 2012, dated 2018) come the findings set out here.

The first test has as its target T1, BRD4 (BD1) (Homo sapiens, UniProt O60885).
T1 construct: with relatively long constructs also being possible, preferably amino acids 44-168; made in house; host or cells: E. coli
The experiment in a line: Binding assay BRD4/acetylated peptide H4 (TR-FRET protein-protein interaction assay).
Conditions: not given
The text has this:
Binding Assay BRD4/Acetylated Peptide H4 (“PRO”)
To assess the BRD4 binding of the substances described in the present application, their ability to inhibit the interaction between BRD4 (BD1) and acetylated histone H4 in a dose-dependent manner was quantified (Filippakopoulos et al., Cell, 2012, 149: 214-231).
For this purpose, use was made of a time-resolved fluorescence resonance energy transfer (TR-FRET) assay which measured binding between N-terminally His6-tagged BRD4 (BD1) (amino acids 67-152, with relatively long constructs also being possible, preferably amino acids 44-168) and a synthetic acetylated histone H4 (Ac—H4) peptide having the sequence GRGK(Ac)GGK(Ac)GLGK(Ac)GGAK(Ac)RHGSGSK-biotin. The recombinant BRD4 protein-produced according to Filippakopoulos et al., Cell, 2012, 149: 214-231—was expressed in E. coli and purified by (Ni-NTA) affinity and (Sephadex G-75) size exclusion chromatography. The Ac—H4 peptide is commercially available, for example from Biosyntan (Berlin, Germany). In a typical assay, 11 different concentrations of each substance (0.1 nM, 0.33 nM, 1.1 nM, 3.8 nM, 13 nM, 44 nM, 0.15 μM, 0.51 μM, 1.7 μM, 5.9 μM and 20 μM) were measured in duplicate on the same microtitre plate. To this end, 100-fold concentrated solutions in DMSO were prepared by serial dilution (1:3.4) of a 2 mM stock solution in a clear 384-well microtitre platte (Greiner Bio-One, Frickenhausen, Germany) 50 nl of these were transferred into a black test plate (Greiner Bio-One, Frickenhausen, Germany). The test was started by addition of 2 μl of a 2.5-fold concentrated BRD4 solution (final concentration usually 10 nM in the […] of the reaction volume) in aqueous assay buffer [50 mM HEPES pH 7.5. 50 mM sodium chloride (NaCl), 0.25 mM CHAPS and 0.05% serum albumin (BSA)] to the substances in the test plate. This was followed by a 10-minute incubation step at 22° C. to pre-equilibrate putative complexes between BRD4 and the substances.
The mixture was then incubated in the dark for one hour at 22° C. and then for at least 3 hours and at most overnight at 4° C. Formation of BRD4/Ac—H4 complexes was determined by measuring the resonance energy transfer from the streptavidin-Eu cryptate to the anti-6His-XL665 antibody in the reaction. To this end, the fluorescence emission was measured at 620 nm and 665 nm after excitation at 330-350 nm in a TR-FRET measuring device, for example a Rubystar or Pherastar (both from BMG Lab Technologies, Offenburg, Germany) or a Viewlux (Perkin-Elmer). The ratio of the emission at 665 nm and at […] was used as an indicator for the amount of BRD4/Ac—H4 complexes formed.
The data obtained (ratios) were normalized, with 0% inhibition corresponding to the mean of the measured values of a set of controls (usually 32 data points) comprising all reagents. Here, 50 nl of DMSO (100%) were used instead of test substances. An inhibition of 100% corresponded to the mean of the measured values of a set of controls (usually 32 data points) comprising all reagents except for BRD4. The IC50 was determined by regression analysis based on a 4-parameter equation (minimum, maximum, IC50, Hill; Y=Max+(Min−Max)/(1+(X/IC 50)^Hill)).
On to `CNC(=O)N1N=C(c2ccc(Cl)cc2)c2ccc(N3CCOC3=O)cc2CC1C` (racemic) [Example 230, (±)-1-(4-chlorophenyl)-N,4-dimethyl-7-(2-oxo-1,3-oxazolidin-3-yl)-4,5-dihydro-3H-2,3-benzodiazepine-3-carboxamide], for which the half-maximal inhibitory concentration (IC50) – broadly, the concentration at which inhibition is half-maximal – came to 240 nM.

`CNC(=O)N1N=C(c2ccc(N3CCN(C)CC3)cc2)c2cc(OC)c(OC(F)F)cc2C[C@H]1C` [Example 163.1, (4R)-7-(difluoromethoxy)-8-methoxy-N,4-dimethyl-1-[4-(4-methylpiperazin-1-yl)phenyl]-4,5-dihydro-3H-2,3-benzodiazepine-3-carboxamide] gave an IC50 of 8940 nM.

With `CNC(=O)N1N=C(c2ccc(-c3c(C)noc3C)cc2)c2cc(OC)c(OC(F)F)cc2CC1C` (racemic) [Example 162, (±)-7-(difluoromethoxy)-1-[4-(3,5-dimethylisoxazol-4-yl)phenyl]-8-methoxy-N,4-dimethyl-4,5-dihydro-3H-2,3-benzodiazepine-3-carboxamide], the IC50 turned out to be 130 nM.

Compound `CNC(=O)N1N=C(c2ccc(N3CCNC(=O)C3)cc2)c2cc(OC)c(OC)cc2C[C@@H]1C` [Example 194, (4S)-7,8-dimethoxy-N,4-dimethyl-1-[4-(3-oxopiperazin-1-yl)phenyl]-4,5-dihydro-3H-2,3-benzodiazepine-3-carboxamide] registered an IC50 of 480 nM.

With `COc1cc2c(cc1OC)C(c1ccc(N3CCN(C)CC3)cc1)=NN(C(=O)NC1CC1)C(C)C2` (racemic) [Example 257], the IC50 amounted to 2000 nM.

`CCC1Cc2cc(OC)c(OC)cc2C(c2ccc(N3CCNCC3)cc2)=NN1C(=O)NC` (racemic) [Example 202, (±)-4-ethyl-7,8-dimethoxy-N-methyl-1-[4-(piperazin-1-yl)phenyl]-4,5-dihydro-3H-2,3-benzodiazepine-3-carboxamide] returned an IC50 of 1230 nM.

Consider `CNC(=O)N1N=C(c2ccc(Cl)cc2)c2ccc(N3CCOCC3=O)cc2CC1C` (racemic) [Example 232, (±)-1-(4-chlorophenyl)-N,4-dimethyl-7-(3-oxomorpholin-4-yl)-4,5-dihydro-3H-2,3-benzodiazepine-3-carboxamide], for which the IC50 was determined as 2840 nM.

Take `CNC(=O)N1N=C(c2ccc(Cl)cc2)c2ccc(N3CCOCC3)cc2CC1C` (racemic) [Example 233, (±)-1-(4-chlorophenyl)-N,4-dimethyl-7-(morpholin-4-yl)-4,5-dihydro-3H-2,3-benzodiazepine-3-carboxamide]: the half-inhibitory concentration (IC50) was determined as 3450 nM.

`CNC(=O)N1N=C(c2ccc(N3CCC(CCO)CC3)cc2)c2cc(OC)c(OC)cc2CC1C` (racemic) [Example 183, (±)-1-{4-[4-(2-hydroxyethyl)piperidin-1-yl]phenyl}-7,8-dimcthoxy-N,4-dimethyl-4,5-dihydro-3H-2,3-benzodiazepine-3-carboxamide]: the concentration for half-maximal inhibition (IC50) is 40 nM.

Compound `CNC(=O)N1N=C(c2cc(N3CCN(C)CC3)c(Br)cc2Br)c2cc(OC)c(OC)cc2CC1C` (racemic) [Example 252, (±)-1-[2,4-Dibromo-5-(4-methylpiperazin-1-yl)phenyl]-7,8-dimethoxy-N,4-dimethyl-4,5-dihydro-3H-2,3-benzodiazepine-3-carboxamide] showed a half-maximal inhibitory concentration (IC50) of 5290 nM.

As for `CNC(=O)N1N=C(c2ccc(N3C[C@@H](C)O[C@@H](C)C3)cc2)c2cc(OC)c(OC)cc2C[C@@H]1C` [Example 195, (4S)-1-{4-[(2R,6S)-2,6-dimethylmorpholin-4-yl]phenyl}-7,8-dimethoxy-N,4-dimethyl-4,5-dihydro-3H-2,3-benzodiazepine-3-carboxamide], the 50% inhibitory concentration (IC50) came to 690 nM.

`CNC(=O)N1N=C(c2ccc(N3CCN(CC(F)(F)F)CC3)cc2)c2cc(OC)c(OC)cc2CC1C` (racemic) [Example 197, (±)-7,8-dimethoxy-N,4-dimethyl-1-{4-[4-(2,2,2-trifluoroethyl)piperazin-1-yl]phenyl}-4,5-dihydro-3H-2,3-benzodiazepine-3-carboxamide]: the half-inhibitory concentration (IC50) was 80 nM.

In the case of `CCOC(=O)N1N=C(c2ccc(N3CCN(C)CC3)cc2)c2cc(OC)c(OC)cc2CC1C` (racemic) [Example 260, Ethyl (±)-7,8-dimethoxy-4-methyl-1-[4-(4-methylpiperazin-1-yl)phenyl]-4,5-dihydro-3H-2,3-benzodiazepine-3-carboxylate], the concentration for half-maximal inhibition (IC50) was 6490 nM.

Compound `CNC(=O)N1N=C(c2ccc(Cl)cc2)c2ccc(N3CCOC3=O)cc2C[C@@H]1C` [Example 230.1, (4S)-1-(4-chlorophenyl)-N,4-dimethyl-7-(2-oxo-1,3-oxazolidin-3-yl)-4,5-dihydro-3H-2,3-benzodiazepine-3-carboxamide] had an IC50 of 330 nM.

Regarding `CCC1Cc2cc(OC)c(OC)cc2C(c2ccc(N3CCS(=O)(=O)CC3)cc2)=NN1C(=O)NC` (racemic) [Example 206, (±)-1-[4-(1,1-dioxidothiomorpholin-4-yl)phenyl]-4-ethyl-7,8-dimethoxy-N-methyl-4,5-dihydro-3H-2,3-benzodiazepine-3-carboxamide], the 50% inhibitory concentration (IC50) came to 930 nM.

As to `CNC(=O)N1N=C(c2ccc(N3CCN(S(C)(=O)=O)CC3)cc2)c2cc(Cl)c(OC(F)(F)F)cc2CC1C` (racemic) [Example 214, (±)-8-chloro-N,4-dimethyl-1-{4-[4-(methylsulphonyl)piperazin-1-yl]phenyl}-7-(trifluoromethoxy)-4,5-dihydro-3H-2,3-benzodiazepine-3-carboxamide], the IC50 is 1230 nM.

In turn, `CCC1Cc2cc(OC)c(OC)cc2C(c2ccc(-c3ccc(F)cc3)cc2)=NN1C(=O)NC` (racemic) [Example 221, (±)-4-ethyl-1-(4′-fluorobiphenyl-4-yl)-7,8-dimethoxy-N-methyl-4,5-dihydro-3H-2,3-benzodiazepine-3-carboxamide] displayed a half-inhibitory concentration (IC50) of 1980 nM.

`CNC(=S)N1N=C(c2ccc(N3CCN(C)CC3)cc2)c2cc(OC)c(OC)cc2CC1C` (racemic) [Example 258, (±)-7,8-Dimethoxy-N,4-dimethyl-1-[4-(4-methylpiperazin-1-yl)phenyl]-4,5-dihydro-3H-2,3-benzodiazepine-3-carbothioamide]: the concentration for half-maximal inhibition (IC50) amounted to 190 nM.

In turn, `CNC(=O)N1N=C(c2ccc(Cl)cc2)c2ccc(N3CCN(C)CC3)cc2CC1C` (racemic) [Example 236, (±)-1-(4-chlorophenyl)-N,4-dimethyl-7-(4-methylpiperazin-1-yl)-4,5-dihydro-3H-2,3-benzodiazepine-3-carboxamide] displayed an IC50 of 2200 nM.

For `CNC(=O)N1N=C(c2ccc(N3CCC(O)CC3)cc2)c2cc(OC)c(OC)cc2C[C@H]1C` [Example 130.2, (4R)-1-[4-(4-Hydroxypiperidin-1-yl)phenyl]-7,8-dimethoxy-N,4-dimethyl-4,5-dihydro-3H-2,3-benzodiazepine-3-carboxamide], the 50% inhibitory concentration (IC50) was 9870 nM.

For the next test, the system named is MOLM-13 cells. Put plainly: Cell proliferation assay (alamarBlue), MOLM-13. The class given is cell-based. As to conditions: Homo sapiens, 96 hours incubation, inhibition of cell proliferation. The procedure:
In accordance with the invention, the capability of the substances to inhibit cell proliferation was determined Cell viability was determined using the alamarBlue® reagent (Invitrogen) in a Victor X3 Multilabel Reader (Perkin Elmer). The excitation wavelength was 530 nm and the emission wavelenth […].
The MOLM-13 cells (DSMZ, ACC 554) were sown at a concentration of 4000 cells/well in 100 μl growth medium (RPMI1640, 10% FCS) on 96-well microtitre plates.
After an overnight incubation at 37° C., the fluorescence values (CI values) were determined. The plates were then treated with various substance dilutions (1E-5 M, 3E-6 M, 1E-6M, 3E-7 M, 1E-7 M, 3E-8 M, 1E-8 M) and incubated at 37° C. for 72 (MV4-11-, LOX-IMVI cells), 96 (MOLM-13-, B16F10-, MDA-MB-431-, Caov-3 cells), 120 (MOLP-8-, KMS-12-PE cells) or 168 (LAPC-4 cells) hours. The fluorescence values (CO values) were then determined. For the data analysis, the CI values were subtracted from the CO values and the results were compared between cells treated with different dilutions of the substance or with buffer solution only. These were used to calculate the IC 50 values (substance concentration required for 50% inhibition of cell proliferation).
Compound `CNC(=O)N1N=C(c2ccc(Cl)cc2)c2ccc(N3CCOC3=O)cc2CC1C` (racemic) [Example 230, (±)-1-(4-chlorophenyl)-N,4-dimethyl-7-(2-oxo-1,3-oxazolidin-3-yl)-4,5-dihydro-3H-2,3-benzodiazepine-3-carboxamide] displayed an IC50 of 230 nM.

`CNC(=O)N1N=C(c2ccc(N3CCN(C)CC3)cc2)c2cc(OC)c(OC(F)F)cc2C[C@H]1C` [Example 163.1, (4R)-7-(difluoromethoxy)-8-methoxy-N,4-dimethyl-1-[4-(4-methylpiperazin-1-yl)phenyl]-4,5-dihydro-3H-2,3-benzodiazepine-3-carboxamide]: the IC50 amounted to 7080 nM.

`CNC(=O)N1N=C(c2ccc(-c3c(C)noc3C)cc2)c2cc(OC)c(OC(F)F)cc2CC1C` (racemic) [Example 162, (±)-7-(difluoromethoxy)-1-[4-(3,5-dimethylisoxazol-4-yl)phenyl]-8-methoxy-N,4-dimethyl-4,5-dihydro-3H-2,3-benzodiazepine-3-carboxamide] came in with an IC50 of 380 nM.
